Our source for the IC50 values is patent US8445674B2, “Heterocyclyl compounds” (Hoffmann-La Roche Inc, priority 2009, dated 2013).

For this experiment, the target named is T1, human chemokine receptor 2 isoform B (Homo sapiens, UniProt P41597).
T1 construct: host or cells: CHOK1-CCR2B-A5 cells (CHO-K1)
T1 sequence (P41597 1-360 isoform P41597-2): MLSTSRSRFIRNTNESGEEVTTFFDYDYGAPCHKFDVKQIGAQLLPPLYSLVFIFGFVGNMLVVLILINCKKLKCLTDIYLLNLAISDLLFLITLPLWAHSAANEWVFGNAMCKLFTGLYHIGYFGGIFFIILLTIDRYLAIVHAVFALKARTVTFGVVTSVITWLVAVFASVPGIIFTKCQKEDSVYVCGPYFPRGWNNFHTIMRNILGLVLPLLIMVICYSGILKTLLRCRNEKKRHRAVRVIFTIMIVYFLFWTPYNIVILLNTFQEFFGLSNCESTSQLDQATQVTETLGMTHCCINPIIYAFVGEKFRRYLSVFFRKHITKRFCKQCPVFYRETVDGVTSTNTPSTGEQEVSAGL
Description: Calcium mobilization assay (FLIPR, antagonist activity against MCP-1). To be noted: Ca mobilisation assay, CHOK1-CCR2B-A5 cells, inhibition of calcium increase induced by 20 nM MCP-1. It is filed as cell-based. A digest of the protocol: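 CHOK1 cells stably overexpressing human CCR2B, loaded with 4 μM Fluo-4 for 2 h at 30° C, compounds added and agonist signal read by FLIPR for 80 s. After 20-30 min at 30° C, 20 nM MCP-1 was added and fluorescence read again. IC50 is 50% inhibition of specific calcium increase (max minus basal).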

As to `O=C1CCN(C(=O)Nc2ccc(C(F)(F)F)c(Cl)c2)CCN1CCCC(=O)N1CCC2(CC2)[C@H](O)C1` [Example 119, 4-[4-((S)-4-Hydroxy-6-aza-spiro[2.5]oct-6-yl)-4-oxo-butyl]-5-oxo-[1,4] diazepane-1-carboxylic acid (3-chloro-4-trifluoromethyl-phenyl)-amide], the IC50 came to 17.6 nM.
The figure for `C[C@H]1C(=O)N(CCCC(=O)N2CCC3(CC3)[C@H](O)C2)C(C(N)=O)CN1C(=O)Nc1ccc(Cl)c(Cl)c1` (stereo partly drawn) [Example 121, (3RS,6S)-4-[4-((S)-4-Hydroxy-6-aza-spiro[2.5]oct-6-yl)-4-oxo-butyl]-6-methyl-5-oxo-piperazine-1,3-dicarboxylic acid 3-amide 1-[(3,4-dichloro-phenyl)-amide]] is 11 nM; for `O=C1CCN(c2ccc(OC(F)(F)F)c(Cl)c2)CCN1CCCC(=O)N1CCC2(CC2)[C@H](O)C1` [Example 122, 1-(3-Chloro-4-trifluoromethoxy-phenyl)-4-[4-((S)-4-hydroxy-6-aza-spiro[2.5]oct-6-yl)-4-oxo-butyl]-[1,4]diazepan-5-one] it is 167 nM.
The figure for `COC(=O)[C@H](CCC(=O)N1CCC2(CC2)[C@H](O)C1)N1CCN(c2ccc(C(F)(F)F)c(Cl)c2)CCC1=O` [Example 123, (S)-2-[4-(3-Chloro-4-trifluoromethyl-phenyl)-7-oxo-[1,4]diazepan-1-yl]-5-((S)-4-hydroxy-6-aza-spiro[2.5]oct-6-yl)-5-oxo-pentanoic acid methyl ester] is 63.1 nM; for `O=C(CC[C@@H](CO)N1CCN(c2ccc(C(F)(F)F)c(Cl)c2)CCC1=O)N1CCC2(CC2)[C@H](O)C1` [Example 124, 1-(3-Chloro-4-trifluoromethyl-phenyl)-4-[(S)-4-((S)-4-hydroxy-6-aza-spiro[2.5]oct-6-yl)-1-hydroxymethyl-4-oxo-butyl]-[1,4]diazepan-5-one] it is 8 nM.
On to `C[C@@H]1CN(CCCC(=O)N2CCC3(CC3)[C@H](O)C2)C(=O)C=CN1c1ccc(Cl)c(C(F)(F)F)c1` [Example 125, (R)-1-(4-Chloro-3-trifluoromethyl-phenyl)-4-[4-((S)-4-hydroxy-6-aza-spiro[2.5]oct-6-yl)-4-oxo-butyl]-2-methyl-1,2,3,4-tetrahydro-[1,4]diazepin-5-one], for which the IC50 was 2750 nM.
As for `C[C@@H]1CN(CCCC(=O)N2CCC3(CC3)[C@H](O)C2)C(=O)CCN1c1ccc(Cl)c(C(F)(F)F)c1` [Example 126, (R)-1-(4-Chloro-3-trifluoromethyl-phenyl)-4-[4-((S)-4-hydroxy-6-aza-spiro[2.5]oct-6-yl)-4-oxo-butyl]-2-methyl-[1,4]diazepan-5-one], the figure is 2670 nM.
As for `COC(=O)[C@H](CCC(=O)N1CCC2(CC2)[C@H](O)C1)N1CC(C)N(c2ccc(C(F)(F)F)c(C(F)(F)F)c2)CCC1=O` (stereo partly drawn) [Example 127, (S)-2-[(R,S)-4-(3,4-Bis-trifluoromethyl-phenyl)-3-methyl-7-oxo-[1,4]diazepan-1-yl]-5-((S)-4-hydroxy-6-aza-spiro[2.5]oct-6-yl)-5-oxo-pentanoic acid methyl ester], the figure is 191 nM; as for `C[C@@H]1CN([C@H](CO)CCC(=O)N2CCC3(CC3)[C@H](O)C2)C(=O)CCN1c1ccc(C(F)(F)F)c(C(F)(F)F)c1` [Example 128, (R)-1-(3,4-bis-trifluoromethyl-phenyl)-4-[(S)-4-((S)-4-hydroxy-6-aza-spiro[2.5]oct-6-yl)-1-hydroxymethyl-4-oxo-butyl]-2-methyl-[1,4]diazepan-5-one], 4.6 nM.
As for `C[C@H]1C(=O)N(CCCC(=O)N2CCC3(CC3)[C@H](O)C2)CCN1c1ccc(C(F)(F)F)c(C(F)(F)F)c1` [Example 130, (S)-4-(3,4-Bis-trifluoromethyl-phenyl)-1-[4-((S)-4-hydroxy-6-aza-spiro[2.5]oct-6-yl)-4-oxo-butyl]-3-methyl-piperazin-2-one], the IC50 was 36.8 nM.
The figure for `C[C@H]1C(=O)N(C[C@@H](O)CC(=O)N2CCC3(CC3)[C@H](O)C2)CCN1c1ccc(C(F)(F)F)c(Cl)c1` [Example 131, (S)-4-(3-Chloro-4-trifluoromethyl-phenyl)-1-[(S)-2-hydroxy-4-((S)-4-hydroxy-6-aza-spiro[2.5]oct-6-yl)-4-oxo-butyl]-3-methyl-piperazin-2-one] is 13.1 nM; for `COC[C@H](CCC(=O)N1CCC2(CC2)[C@H](O)C1)N1CCN(c2ccc(C(F)(F)F)c(Cl)c2)[C@@H](C)C1=O` [Example 132, (S)-4-(3-Chloro-4-trifluoromethyl-phenyl)-1-[(S)-4-((S)-4-hydroxy-6-aza-spiro[2.5]oct-6-yl)-1-methoxymethyl-4-oxo-butyl]-3-methyl-piperazin-2-one] it is 310 nM; for `C[C@H]1C(=O)N(CCC(O)C(=O)N2CCC3(CC3)[C@H](O)C2)CCN1C(=O)Nc1ccc(C(F)(F)F)c(Cl)c1` (stereo partly drawn) [Example 133, (S)-4-[(R,S)-3-Hydroxy-4-((S)-4-hydroxy-6-aza-spiro[2.5]oct-6-yl)-4-oxo-butyl]-2-methyl-3-oxo-piperazine-1-carboxylic acid (3-chloro-4-trifluoromethyl-phenyl)-amide] it is 134 nM.
For the compound `C[C@H]1C(=O)N(CC[C@H](O)C(=O)N2CCC3(CC3)[C@H](O)C2)CCN1C(=O)Nc1ccc(C(F)(F)F)c(Cl)c1` [Example 134, (S)-4-[(S)-3-Hydroxy-4-((S)-4-hydroxy-6-aza-spiro[2.5]oct-6-yl)-4-oxo-butyl]-2-methyl-3-oxo-piperazine-1-carboxylic acid (3-chloro-4-trifluoromethyl-phenyl)-amide], the IC50 stood at 188 nM.
Consider `C[C@H]1C(=O)N(CCC(O)C(=O)N2CCC3(CC3)[C@H](O)C2)CCN1C(=O)Nc1ccc(C(F)(F)F)c(C(F)(F)F)c1` (stereo partly drawn) [Example 135, (S)-4-[(R,S)-3-Hydroxy-4-((S)-4-hydroxy-6-aza-spiro[2.5]oct-6-yl)-4-oxo-butyl]-2-methyl-3-oxo-piperazine-1-carboxylic acid (3,4-bis-trifluoromethyl-phenyl)-amide], for which the concentration for half-maximal inhibition (IC50) amounted to 62.2 nM.
As for `C[C@H]1C(=O)N(CCC(F)C(=O)N2CCC3(CC3)[C@H](O)C2)CCN1C(=O)Nc1ccc(C(F)(F)F)c(Cl)c1` (stereo partly drawn) [Example 136, (S)-4-[(R,S)-3-Fluoro-4-((S)-4-hydroxy-6-aza-spiro[2.5]oct-6-yl)-4-oxo-butyl]-2-methyl-3-oxo-piperazine-1-carboxylic acid (3-chloro-4-trifluoromethyl-phenyl)-amide], the figure is 4.7 nM; as for `COC[C@H](CCC(=O)N1CCC2(CC2)[C@H](O)C1)N1CCN(C(=O)Nc2ccc(C(F)(F)F)c(Cl)c2)[C@@H](C)C1=O` [Example 139, (S)-4-[(S)-4-((S)-4-Hydroxy-6-aza-spiro[2.5]oct-6-yl)-1-methoxymethyl-4-oxo-butyl]-2-methyl-3-oxo-piperazine-1-carboxylic acid (3-chloro-4-trifluoromethyl-phenyl)-amide], 152 nM.
In the case of `C[C@H]1C(=O)N([C@@H](CCC(=O)N2CCC3(CC3)[C@H](O)C2)C(=O)O)CCN1C(=O)Nc1ccc(C(F)(F)F)c(Cl)c1` [Example 140, (S)-2-[(S)-4-(3-Chloro-4-trifluoromethyl-phenylcarbamoyl)-3-methyl-2-oxo-piperazin-1-yl]-5-((S)-4-hydroxy-6-aza-spiro[2.5]oct-6-yl)-5-oxo-pentanoic acid], the IC50 came to 751 nM.
